We go through 15 molecules from patent US20070066680A1, “Benzofurans and benzothiophenes” (priority 2003, published 2007).

In assay [1] the test system is isolated islets of Langerhans. Kind of assay: Insulin secretion in isolated rat islets of Langerhans, static incubation, RIA. Format: cell-based. The following applies: 90 minutes incubation, stimulation if factor >= 130%; for Insulin secretion stimulation factor, Product + G2.8 mM: glucose 2.8 mM; for Insulin secretion stimulation factor, Product + G8 mM: glucose 8 mM. As to the method: Study of the Activity on Isolated Rat Islets
Effect of the chemical compounds on insulin secretion as a function of the glucose concentration, in vitro, in isolated islets of Langerhans in static incubation (Table C):
The islets of Langerhans obtained by digestion of exocrine pancreatic tissue with collagenase, and then purified on Ficoll gradient, are incubated for 90 minutes in the presence of two concentrations of glucose, (2.8 mM or 8 mM), in the presence or absence of the chemical compound. The insulin secretion is assayed by RIA in the incubation medium.
The potential of the various chemical compounds to stimulate insulin secretion is estimated by calculating the stimulation factor*.
A compound stimulates the secretion of insulin if this factor is greater than or equal to 130% for a given dose of glucose. [formula] • where: • G=secretion of insulin (pmol/min. islet) in the presence of glucose alone
G+product=secretion of insulin (pmol/min. islet) in the presence of the same concentration of glucose and of the test chemical compound.

The next assay has as its system insulin secretion. Kind of assay: Test of insulin secretion according to Endocrinology, 1992 vol. 130 (1) pp. 167-178. Format: cell-based. The following applies: Rattus norvegicus, INS1; compounds tested at 10^−5 M; read-out: SEC INS1 (% of insulin secretion). As to the method:
Test of Insulin Secretion According to the Method Described in Endocrinology, 1992 vol. 130 (1) pp. 167-178
The insulin-secreting activities are collated in Table B. The compounds according to the invention were tested at a concentration of 10^−5 M.

The next assay relates to NOSTZ diabetic rats. Kind of assay: Antidiabetic activity (glycaemia) in NOSTZ diabetic rats. As to conditions: repeated for 4 days, blood two hours after the fourth treatment. In kind it is in vivo, rat. As to the method: Study of the Antidiabetic Activity in NOSTZ rats Effect/Dose of compound 15, in vivo, in the case of NOSTZ diabetic rats (Table D): NOSTZ rats, made diabetic by injection of steptozotocin on the day of birth (Portha et al.; 1974), are treated, orally, daily by administration of 50-100-200 mg/kg of body weight of compound 15, of 200 mg/kg of metformin (reference antidiabetic agent) or of methylcellulose (controls). Blood samples are taken from the anaesthetized animal two hours after the fourth treatment. The glycaemia is measured via the colorimetric method using glucose dehydrogenase. The antidiabetic activity of the compounds of the formula (I) orally was determined on an experimental model of non-insulin-dependent diabetes, induced in rats with steptozotocin. The model of non-insulin-dependent diabetes is obtained in the rats by means of a neonatal injection of steptozotocin. The diabetic rats used are eight weeks old. The animals are housed, from the day of birth to the day of the experiment, in an animal house at a regulated temperature of 21 to 22° C. and subjected to a fixed cycle of light (from 7 a.m. to 7 p.m.) and darkness (from 7 p.m. to 7 a.m.). Their food consisted of a maintenance diet, and water and food were given “ad libitum”, with the exception of fasting two hours before the tests, during which period the food is removed (post-absorptive state). The rats are treated orally for one (D1) or four (D4) days with the test product. Two hours after the final administration of the product and 30 minutes after anaesthetizing the animals with pentobarbital sodium (Nembutal®), a 300 μl blood sample is taken from the end of the tail.

The structures appear in SMILES notation. Marks after values point to notes of the source that are not given here.

As to `O=C(COc1c(C(=O)c2ccccc2)sc2ccccc12)c1ccc(Cl)cc1` [Product 1], in assay [1] (product 10^−5 M), the “Insulin secretion stimulation factor, Product + G2.8 mM” value worked out at 98% and the “Insulin secretion stimulation factor, Product + G8 mM” value was 135%. Moreover, the activity at 10 µM in the assay with insulin secretion was determined as 206%.

With `COc1ccccc1C(=O)COc1c(C(=O)c2ccccc2)sc2ccccc12` [Product 3], the activity at 10 µM in the assay with insulin secretion amounted to 244%.

With `COc1cccc(C(=O)COc2c(C(=O)c3ccccc3)sc3ccccc23)c1` [Product 8], the activity at 10 µM with insulin secretion is 193%.

Turning to `COc1ccc(C(=O)COc2c(C(=O)c3ccccc3)sc3ccccc23)c(OC)c1` [Product 14], the activity at 10 µM in the assay on insulin secretion is 287%.

For `CC(C)(C)C(=O)COc1c(C(=O)c2ccccc2)sc2ccccc12` [Product 15, 1-(2-benzoylbenzo[b]thiophen-3-yloxy)-3,3-dimethylbutan-2-one], the “Percentage of variation of glycaemia relative to the controls” value in the assay with NOSTZ diabetic rats (50 mg/kg/day orally) is given as −13%*; in the assay on NOSTZ diabetic rats (100 mg/kg/day orally), −23%**; in the assay with NOSTZ diabetic rats (200 mg/kg/day orally) it was −18%**. Further, the “Insulin secretion stimulation factor, Product + G2.8 mM” value in assay [1] (product 10^−5 M) amounted to 119%; in assay [1] (product 10^−6 M), 125%. The “Insulin secretion stimulation factor, Product + G8 mM” value in assay [1] (product 10^−5 M) worked out at 152%; in assay [1] (product 10^−6 M) it was 183%. Besides, in the assay with insulin secretion, the activity at 10 µM is 207%.

As to `N#Cc1ccc(C(=O)c2sc3ccccc3c2OCc2ccccc2C#N)cc1` [Product 42], the activity at 10 µM in the assay with insulin secretion was found to be 283%.

`N#Cc1ccc(C(=O)c2sc3ccccc3c2OCc2cccc(C#N)c2)cc1` [Product 43]: in assay [1] (product 10^−5 M), the “Insulin secretion stimulation factor, Product + G2.8 mM” value is 108% and the “Insulin secretion stimulation factor, Product + G8 mM” value worked out at 135%. In addition, the activity at 10 µM in the assay with insulin secretion amounted to 257%.

As to `N#Cc1ccc(C(=O)c2sc3ccccc3c2OCc2c(Cl)cccc2Cl)cc1` [Product 55], in the assay with insulin secretion, the activity at 10 µM was determined as 174%.

In the case of `N#Cc1ccc(C(=O)c2sc3ccccc3c2OCc2ccccc2)cc1` [Product 59], the activity at 10 µM with insulin secretion was found to be 229%.

For the molecule `CS(=O)(=O)c1ccc(COc2c(C(=O)c3ccc(C#N)cc3)sc3ccccc23)cc1` [Product 66], the activity at 10 µM in the assay on insulin secretion was 202%.

Turning to `N#Cc1ccc(C(=O)c2sc3ccccc3c2OCC(=O)c2ccccc2)cc1` [Product 69], the activity at 10 µM with insulin secretion was 179%.

Regarding `COc1ccccc1C(=O)COc1c(C(=O)c2ccc(C#N)cc2)sc2ccccc12` [Product 70], the activity at 10 µM with insulin secretion was 189%.

For `Cc1ccc(C(=O)COc2c(C(=O)c3ccc(C#N)cc3)sc3ccccc23)cc1` [Product 72], the activity at 10 µM with insulin secretion amounted to 185%.

Turning to `COc1ccccc1C(=O)COc1c(C(=O)c2ccccc2)oc2ccccc12` [Product 86], in the assay with insulin secretion, the activity at 10 µM was 164%.

`CN(C)C(=N)N=C(N)N` [metformin, reference compound]: the “Percentage of variation of glycaemia relative to the controls” value in the assay with NOSTZ diabetic rats (200 mg/kg/day orally) was −29%**.
